Results reported in ChEMBL document CHEMBL5108009, “Positron Emission Tomography (PET) Imaging Tracers for Serotonin Receptors” (J Med Chem, 2022).

Columns and labels:
[1] = Binding affinity to pig 5-HT1B receptor (unknown origin) assessed as inhibition constant
[2] = Drug uptake in cynomolgus monkey frontal cortex administered iv measured as percentage of injected dose by PET imaging relative to control; format: ADME, organism-based, Macaca fascicularis; conditions: in vivo
[3] = molecular target: Serotonin 2 (5-HT2) receptor (Rattus norvegicus, UniProt P30994+P08909+P14842); test: Displacement of [3H]-spiperone from rat frontal cortex 5-HT2 receptor; format: tissue-based
[4] = molecular target: T1, 5-hydroxytryptamine receptor 2A (Rattus norvegicus, UniProt P14842); test: Binding affinity to rat frontal cortex homogenate 5-HT2A by ketanserin assay; format: tissue-based
T1 sequence (P14842 whole entry): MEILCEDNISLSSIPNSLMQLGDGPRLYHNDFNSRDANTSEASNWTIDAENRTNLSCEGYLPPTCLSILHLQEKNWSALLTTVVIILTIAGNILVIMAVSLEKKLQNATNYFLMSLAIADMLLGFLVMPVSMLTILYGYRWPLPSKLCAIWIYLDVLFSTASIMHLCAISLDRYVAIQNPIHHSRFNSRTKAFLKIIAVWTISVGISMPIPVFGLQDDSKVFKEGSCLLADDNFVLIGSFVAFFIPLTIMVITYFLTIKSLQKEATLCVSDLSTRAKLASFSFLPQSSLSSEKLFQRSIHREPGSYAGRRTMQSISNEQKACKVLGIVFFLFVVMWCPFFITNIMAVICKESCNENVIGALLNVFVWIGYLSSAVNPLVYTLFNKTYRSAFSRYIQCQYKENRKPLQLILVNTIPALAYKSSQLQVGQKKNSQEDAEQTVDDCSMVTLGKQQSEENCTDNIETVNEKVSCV

[5] = molecular target: T2, D(2) dopamine receptor (Rattus norvegicus, UniProt P61169); test: Displacement of [3H]-spiperone from rat striatum D2 receptor
T2 sequence (P61169 whole entry): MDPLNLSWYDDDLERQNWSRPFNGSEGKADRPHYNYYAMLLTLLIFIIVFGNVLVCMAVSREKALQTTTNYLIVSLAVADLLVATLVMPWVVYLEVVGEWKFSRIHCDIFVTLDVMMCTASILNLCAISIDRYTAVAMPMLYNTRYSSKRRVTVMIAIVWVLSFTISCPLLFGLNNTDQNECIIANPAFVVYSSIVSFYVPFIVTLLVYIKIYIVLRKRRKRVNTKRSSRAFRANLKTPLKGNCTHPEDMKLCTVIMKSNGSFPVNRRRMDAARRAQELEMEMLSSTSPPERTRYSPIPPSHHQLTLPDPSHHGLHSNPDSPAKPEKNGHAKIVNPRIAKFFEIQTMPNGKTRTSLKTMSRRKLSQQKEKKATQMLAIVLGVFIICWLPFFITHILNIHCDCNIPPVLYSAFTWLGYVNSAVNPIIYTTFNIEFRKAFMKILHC

[6] = molecular target: T3, Alpha-1A adrenergic receptor (Rattus norvegicus, UniProt P43140); test: Displacement of [3H]prazosin from rat cerebral cortex alpha1 adrenergic receptor; format: tissue-based
T3 sequence (P43140 whole entry): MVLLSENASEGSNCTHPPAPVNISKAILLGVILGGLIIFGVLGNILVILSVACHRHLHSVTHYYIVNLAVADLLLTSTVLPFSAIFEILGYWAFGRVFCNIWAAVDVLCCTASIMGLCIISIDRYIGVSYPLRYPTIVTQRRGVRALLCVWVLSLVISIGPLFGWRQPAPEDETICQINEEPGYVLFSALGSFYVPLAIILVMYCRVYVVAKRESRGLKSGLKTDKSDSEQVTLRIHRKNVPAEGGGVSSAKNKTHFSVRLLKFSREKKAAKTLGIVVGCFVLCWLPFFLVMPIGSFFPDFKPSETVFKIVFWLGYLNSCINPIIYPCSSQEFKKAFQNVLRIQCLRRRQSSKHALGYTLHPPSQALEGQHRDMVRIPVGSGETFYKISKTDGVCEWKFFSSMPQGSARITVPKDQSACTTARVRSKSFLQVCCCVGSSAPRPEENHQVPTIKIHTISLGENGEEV

[7] = molecular target: 5-hydroxytryptamine receptor 2A (Homo sapiens, UniProt P28223); test: Binding affinity to human frontal cortex homogenate 5-HT2A by ketanserin assay; format: tissue-based
Sequence of 5-hydroxytryptamine receptor 2A (Homo sapiens, UniProt P28223) (P28223 whole entry): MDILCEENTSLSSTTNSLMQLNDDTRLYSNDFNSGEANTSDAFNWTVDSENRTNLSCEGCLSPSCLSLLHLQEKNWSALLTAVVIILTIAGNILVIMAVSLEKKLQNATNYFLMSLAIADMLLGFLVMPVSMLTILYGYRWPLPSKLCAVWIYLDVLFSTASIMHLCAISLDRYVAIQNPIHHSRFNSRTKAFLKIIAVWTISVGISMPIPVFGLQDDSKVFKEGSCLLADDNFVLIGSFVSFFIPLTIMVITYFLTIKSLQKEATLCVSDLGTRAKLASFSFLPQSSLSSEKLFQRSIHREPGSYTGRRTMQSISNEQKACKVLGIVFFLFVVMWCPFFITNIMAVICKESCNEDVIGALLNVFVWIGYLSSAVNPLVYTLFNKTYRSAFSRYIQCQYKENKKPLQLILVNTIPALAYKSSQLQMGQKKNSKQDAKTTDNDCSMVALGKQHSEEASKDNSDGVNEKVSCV

[8] = molecular target: T4, 5-hydroxytryptamine receptor 1A (Rattus norvegicus, UniProt P19327); test: Binding affinity to rat brain homogenate 5-HT1A receptor assessed as dissociation constant; format: tissue-based
T4 sequence (P19327 whole entry): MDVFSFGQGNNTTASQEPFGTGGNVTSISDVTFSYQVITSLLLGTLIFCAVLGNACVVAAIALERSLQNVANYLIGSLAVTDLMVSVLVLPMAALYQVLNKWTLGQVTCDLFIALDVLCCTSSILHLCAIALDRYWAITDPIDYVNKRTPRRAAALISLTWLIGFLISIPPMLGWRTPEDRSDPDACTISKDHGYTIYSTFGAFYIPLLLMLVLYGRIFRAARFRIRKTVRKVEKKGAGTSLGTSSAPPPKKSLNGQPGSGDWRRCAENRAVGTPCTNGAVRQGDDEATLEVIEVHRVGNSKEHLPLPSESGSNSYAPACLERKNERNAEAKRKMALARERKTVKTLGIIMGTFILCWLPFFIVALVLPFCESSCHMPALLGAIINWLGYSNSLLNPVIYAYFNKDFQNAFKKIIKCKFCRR

[9] = molecular target: Sodium-dependent serotonin transporter (Rattus norvegicus, UniProt P31652); test: Binding affinity to rat brain homogenate SERT receptor assessed as dissociation constant; format: tissue-based
Sequence of Sodium-dependent serotonin transporter (P31652 whole entry): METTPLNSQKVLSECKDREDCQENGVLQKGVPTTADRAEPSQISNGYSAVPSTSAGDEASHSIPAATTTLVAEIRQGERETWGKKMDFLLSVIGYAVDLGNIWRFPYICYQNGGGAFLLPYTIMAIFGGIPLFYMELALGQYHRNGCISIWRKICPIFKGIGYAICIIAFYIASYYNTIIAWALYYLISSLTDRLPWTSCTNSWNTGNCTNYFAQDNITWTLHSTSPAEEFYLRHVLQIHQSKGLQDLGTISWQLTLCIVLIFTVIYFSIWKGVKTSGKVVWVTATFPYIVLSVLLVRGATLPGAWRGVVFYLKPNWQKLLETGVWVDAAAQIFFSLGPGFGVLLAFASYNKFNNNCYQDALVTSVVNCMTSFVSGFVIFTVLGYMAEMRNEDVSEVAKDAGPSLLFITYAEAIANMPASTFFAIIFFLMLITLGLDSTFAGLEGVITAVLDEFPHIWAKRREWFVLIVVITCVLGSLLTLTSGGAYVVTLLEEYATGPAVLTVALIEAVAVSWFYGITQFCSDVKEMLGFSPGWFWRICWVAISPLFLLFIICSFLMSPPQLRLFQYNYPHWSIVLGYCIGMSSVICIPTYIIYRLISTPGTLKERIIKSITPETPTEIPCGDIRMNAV

[10] = molecular target: T2, D(2) dopamine receptor; test: Binding affinity to rat brain homogenate D2 receptor assessed as dissociation constant; format: tissue-based
[11] = Biodistribution in Wistar rat assessed as uptake ratio of cortex to cerebellum at 50 to 100 microCi measured after 2 hrs; format: ADME, organism-based; conditions: in vivo, dose 50-100 microCi
[12] = molecular target: T2, D(2) dopamine receptor; test: Binding affinity to rat striatum homogenate membrane D2 receptor incubated for 10 mins; format: cell membranes
[13] = molecular target: Histamine H1 receptor (Cavia porcellus, UniProt P31389); test: Binding affinity to guinea pig cerebellum homogenate membrane H1 receptor incubated for 30 mins; format: cell membranes
Sequence of Histamine H1 receptor (P31389 whole entry): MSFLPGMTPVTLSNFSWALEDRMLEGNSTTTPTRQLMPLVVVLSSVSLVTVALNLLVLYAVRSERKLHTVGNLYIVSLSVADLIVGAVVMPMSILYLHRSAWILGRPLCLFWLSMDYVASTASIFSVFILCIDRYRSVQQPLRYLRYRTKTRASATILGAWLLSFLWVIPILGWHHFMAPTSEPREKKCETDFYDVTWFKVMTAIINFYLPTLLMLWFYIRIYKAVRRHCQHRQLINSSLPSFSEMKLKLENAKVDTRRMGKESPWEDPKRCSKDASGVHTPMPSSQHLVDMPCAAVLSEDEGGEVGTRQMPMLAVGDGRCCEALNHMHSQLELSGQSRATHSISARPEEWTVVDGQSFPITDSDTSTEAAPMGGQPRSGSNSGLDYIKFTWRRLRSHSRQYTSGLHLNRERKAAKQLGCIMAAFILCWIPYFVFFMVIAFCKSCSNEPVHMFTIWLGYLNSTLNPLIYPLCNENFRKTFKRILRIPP

[14] = molecular target: T3, Alpha-1A adrenergic receptor; test: Binding affinity to rat forebrain homogenate membrane alpha 1 adrenergic receptor incubated for 10 mins; format: cell membranes
[15] = Binding affinity to rat cerebral cortex homogenate 5-HT1A receptor assessed as inhibition constant; format: tissue-based
[16] = molecular target: Serotonin 2 (5-HT2) receptor (Homo sapiens, UniProt P41595+P28223+P28335); test: Binding affinity to cerebrum 5-HT2 receptor (unknown origin); format: tissue-based
[17] = Ratio of drug uptake in human frontal cortex to cerebellum at 15 mCi measured after 60 mins postinjection by PET imaging; format: ADME, organism-based, Brain frontal cortex/cerebellum; conditions: in vivo, 1 h
[18] = Ratio of drug uptake in human frontal cortex to cerebellum at 15 mCi measured after 30 mins postinjection by PET imaging; format: ADME, organism-based, Brain frontal cortex/cerebellum; conditions: in vivo, 0.5 h
[19] = molecular target: T3, Alpha-1A adrenergic receptor; test: Displacement of [3H]-WB4101 from rat forebrain homogenate alpha 1 adrenergic receptor; format: tissue-based
[20] = molecular target: T2, D(2) dopamine receptor; test: Displacement of [3H]-haloperidol from rat striatal homogenate D2 receptor; format: tissue-based, Striatum
[21] = molecular target: T1, 5-hydroxytryptamine receptor 2A; test: Displacement of [3H]-spiperone from rat frontal cortex homogenate 5-HT2A receptor; format: tissue-based
[22] = molecular target: T2, D(2) dopamine receptor; test: Displacement of [3H]-halopridol from rat striatum D2 receptors
[23] = molecular target: T3, Alpha-1A adrenergic receptor; test: Displacement of [3H]-WB4101 from rat forebrain alpha 1 adrenergic receptors; format: tissue-based
[24] = molecular target: T5, 5-hydroxytryptamine receptor 1A (Homo sapiens, UniProt P08908)
T5 sequence (P08908 whole entry): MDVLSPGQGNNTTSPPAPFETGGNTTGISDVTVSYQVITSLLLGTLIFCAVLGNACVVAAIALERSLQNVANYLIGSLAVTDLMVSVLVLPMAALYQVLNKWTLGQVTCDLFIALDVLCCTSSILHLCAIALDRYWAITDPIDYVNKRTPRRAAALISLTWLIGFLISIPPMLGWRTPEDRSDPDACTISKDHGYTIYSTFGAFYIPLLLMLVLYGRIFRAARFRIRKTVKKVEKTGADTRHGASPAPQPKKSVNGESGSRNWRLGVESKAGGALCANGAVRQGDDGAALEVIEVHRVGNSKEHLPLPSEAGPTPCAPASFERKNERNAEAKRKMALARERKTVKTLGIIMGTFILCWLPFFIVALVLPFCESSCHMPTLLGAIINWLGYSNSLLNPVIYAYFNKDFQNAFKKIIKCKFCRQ

[25] = Drug uptake in monkey brain measured after 7 mins postinjection; format: ADME, organism-based, Macaca mulatta; conditions: rhesus monkey, in vivo
[26] = Drug uptake in rat brain; format: ADME, tissue-based; conditions: in vivo
[27] = molecular target: T5, 5-hydroxytryptamine receptor 1A; test: Binding affinity to 5-HT1A receptor (unknown origin) assessed as inhibition constant by scintillation spectroscopic analysis

CCC(=O)N1CCN(c2ccc(NC(=O)c3cc(=O)c4cc(F)cc(N5CCN([11CH3])CC5)c4o3)cc2)CC1
Ki [1]: 2 nM
Drug uptake [2]: 0.7%

CN1CN(c2ccccc2)C2(CCN(CCCC(=O)c3ccc(F)cc3)CC2)C1=O [MESPIPERONE]
IC50 [3]: 1.3 nM
Ki [4]: 0.5 nM
IC50 [5]: 0.23 nM
IC50 [6]: 10.1 nM
Ki [7]: 8.8 nM

COc1ccccc1N1CCN(CCn2cc(COCC(COc3ccc([Si]([18F])(C(C)(C)C)C(C)(C)C)cc3)OCc3cn(CCN4CCN(c5ccccc5OC)CC4)nn3)nn2)CC1 (configuration not stated)
Ki [8]: 0.099 nM
Ki [9]: 9.8 nM
Ki [10]: 2.2 nM

O=C(c1ccc([18F])cc1)C1CCN(CCn2c(=S)[nH]c3ccccc3c2=O)CC1
Ratio [11]: 11

O=C(c1ccc(F)cc1)C1CCN(CCn2c(=O)[nH]c3ccccc3c2=O)CC1 [KETANSERIN]
Ki [12]: 220 nM
Ki [13]: 10 nM
Ki [14]: 10 nM

O=S1(=O)c2cccc3cccc(c23)N1CCCN1CCN(c2ccc(F)cc2)CC1 [FANANSERIN]
Ki [15]: 70 nM

CCN(CC)C(=O)[C@@H]1C=C2c3cccc4c3c(c(Br)n4[11CH3])CC2N(C)C1 (some centres not stated)
Ki [16]: 0.5 nM
Ratio [17]: 2.7
Ratio [18]: 1.7

Cc1nc2n(c(=O)c1CCN1CCC(C(=O)c3ccc(F)cc3)CC1)CCS2 [SETOPERONE]
Ki [19]: 12 nM
Ki [20]: 24 nM
Ki [21]: 2.3 nM

O=C(c1ccc(F)cc1)C1CCN(CCn2c(=S)[nH]c3ccccc3c2=O)CC1 [ALTANSERIN]
Ki [22]: 62 nM
Ki [23]: 5 nM

[11CH3]Oc1ccc2cccc(N3CCN(CCNC(=O)c4ccc(F)cc4)CC3)c2c1
Ki [24]: 0.98 nM
SUV [25]: 7
SUV [26]: 2

CNc1nc(CNCC2(F)CCN(C(=O)c3ccc(F)c(Cl)c3)CC2)ccc1C
Ki [27]: 0.04 nM
